Experiments:
[1] = target: T1, phosphorylated EGFR (pEGFR) (Homo sapiens, UniProt P00533); assay: Detection of phosphorylated EGFR (pEGFR) in EGF-stimulated A431 cells (AlphaLISA); assay type: cell-based; settings: A431 cells (10% FBS), 4 hours with compound, then EGF 30 ng/mL for 10 minutes
T1 construct: endogenous in cells; host or cells: A431

[2] = target: T2, BaF3 EGFR-H773 V774insNPH (Homo sapiens, UniProt P00533, DUP771-773, cells depend on it); assay: Cell viability assay (CellTiter Glo); assay type: cell-based, mouse; settings: 72 hours; 3000 cells per well, 96-well plates; read-out: Cell viability IC50, nM, BaF3 EGFR-H773 V774insNPH
T2 construct: Ba/F3 cell lines were engineered to express human ERBB2 or EGFR kinases, rendering the cells IL-3 independent
Procedure, shortened: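 Murine Ba/F3 cells made IL-3-independent by retroviral human EGFR or ERBB2 were seeded at 3000 or 300 cells per well and exposed to serially diluted compound (DMSO ≤0.1%) for 72 hours at 37° C, 5% CO2. CellTiter Glo luminescence was normalised to DMSO and media-only controls and fitted to a sigmoidal dose-response.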

[3] = target: ERBB2 (D769Y) (Homo sapiens, UniProt P04626, D769Y); assay: Reaction Biology kinase activity assay (33P-ATP, HotSpot); assay type: biochemical; settings: final enzyme concentration 15 nM; 100 μM 33P-ATP; 20 min preincubation, 2 hours at 25° C.
Experimental: (§1) Inhibition of kinase activity was assessed using a kinase activity assay (Anastassiadis, T. et al. Nat Biotechnol 2011 29: 1039-1045). In particular, substrate (poly Glu-Tyr sodium salt (Sigma Aldrich, cat #P7244)) was freshly prepared in reaction buffer (20 mM Hepes (pH 7.5), 10 mM MgCl2, 1 mM EGTA, 0.02% Brij35, 0.02 mg/ml BSA, 0.1 mM Na3VO4, 2 mM DTT, 1% DMSO). EGFR, ERBB2 or ERBB2 mutant kinases were added to the substrate solution and mixed at the final concentrations in Table B1, below. Compounds were dissolved in 100% DMSO and the resulting solutions were added to the kinase reaction mixture. The kinase reaction mixture was incubated with the compounds for 20 minutes at room temperature. 100 μM ^33P-ATP (Specific activity 10 μCi/μl) was then added to initiate the reaction. This mixture was incubated for 2 hours at 25° C.
(§2) Reactions were spotted onto P81 ion exchange filter paper (Whatman). Unbound phosphate was removed by extensive washing of filters in 0.75% phosphoric acid. Radioactivity was detected using a HotSpot, a proprietary technology of Reaction Biology Corporation (Anastassiadis, T. et al., Nat Biotechnol. 2011 29(11):1039-45). Kinase activity data were expressed as the percentage kinase activity remaining in test samples relative to vehicle only (i.e., DMSO only) control reactions. IC50 values and curve fits were obtained using Prism (GraphPad Software), using a nonlinear regression model with a sigmoidal dose response and are shown in Table B1.

[4] = target: ERBB2 (V777_G778insCG) (Homo sapiens, UniProt P04626, INS777CG); assay: as above; assay type: biochemical; settings: final enzyme concentration 100 nM; 100 μM 33P-ATP; 20 min preincubation, 2 hours at 25° C.
ERBB2 (V777_G778insCG), sequence (P04626 with tags, fused parts or gaps INS777CG limits assumed): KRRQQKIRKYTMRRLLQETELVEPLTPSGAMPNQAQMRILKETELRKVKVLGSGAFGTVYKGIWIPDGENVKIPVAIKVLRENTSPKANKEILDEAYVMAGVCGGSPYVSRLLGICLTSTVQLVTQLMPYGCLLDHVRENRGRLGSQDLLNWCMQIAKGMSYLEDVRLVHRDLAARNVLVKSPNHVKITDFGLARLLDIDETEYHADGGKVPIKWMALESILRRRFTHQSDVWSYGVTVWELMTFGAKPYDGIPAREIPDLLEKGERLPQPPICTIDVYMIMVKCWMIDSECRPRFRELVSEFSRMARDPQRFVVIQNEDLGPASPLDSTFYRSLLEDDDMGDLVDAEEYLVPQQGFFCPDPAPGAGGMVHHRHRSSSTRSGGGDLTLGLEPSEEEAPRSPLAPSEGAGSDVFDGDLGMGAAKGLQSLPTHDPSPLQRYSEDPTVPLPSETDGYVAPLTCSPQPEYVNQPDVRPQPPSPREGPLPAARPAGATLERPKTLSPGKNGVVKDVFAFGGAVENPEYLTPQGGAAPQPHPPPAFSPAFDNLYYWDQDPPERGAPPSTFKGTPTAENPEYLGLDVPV
Experimental: as §1, §2

[5] = target: ERBB2 (D769H) (Homo sapiens, UniProt P04626, D769H); assay: as above; assay type: biochemical; settings: final enzyme concentration 150 nM; 100 μM 33P-ATP; 20 min preincubation, 2 hours at 25° C.
ERBB2 (D769H), sequence (P04626 23-1255 D769H): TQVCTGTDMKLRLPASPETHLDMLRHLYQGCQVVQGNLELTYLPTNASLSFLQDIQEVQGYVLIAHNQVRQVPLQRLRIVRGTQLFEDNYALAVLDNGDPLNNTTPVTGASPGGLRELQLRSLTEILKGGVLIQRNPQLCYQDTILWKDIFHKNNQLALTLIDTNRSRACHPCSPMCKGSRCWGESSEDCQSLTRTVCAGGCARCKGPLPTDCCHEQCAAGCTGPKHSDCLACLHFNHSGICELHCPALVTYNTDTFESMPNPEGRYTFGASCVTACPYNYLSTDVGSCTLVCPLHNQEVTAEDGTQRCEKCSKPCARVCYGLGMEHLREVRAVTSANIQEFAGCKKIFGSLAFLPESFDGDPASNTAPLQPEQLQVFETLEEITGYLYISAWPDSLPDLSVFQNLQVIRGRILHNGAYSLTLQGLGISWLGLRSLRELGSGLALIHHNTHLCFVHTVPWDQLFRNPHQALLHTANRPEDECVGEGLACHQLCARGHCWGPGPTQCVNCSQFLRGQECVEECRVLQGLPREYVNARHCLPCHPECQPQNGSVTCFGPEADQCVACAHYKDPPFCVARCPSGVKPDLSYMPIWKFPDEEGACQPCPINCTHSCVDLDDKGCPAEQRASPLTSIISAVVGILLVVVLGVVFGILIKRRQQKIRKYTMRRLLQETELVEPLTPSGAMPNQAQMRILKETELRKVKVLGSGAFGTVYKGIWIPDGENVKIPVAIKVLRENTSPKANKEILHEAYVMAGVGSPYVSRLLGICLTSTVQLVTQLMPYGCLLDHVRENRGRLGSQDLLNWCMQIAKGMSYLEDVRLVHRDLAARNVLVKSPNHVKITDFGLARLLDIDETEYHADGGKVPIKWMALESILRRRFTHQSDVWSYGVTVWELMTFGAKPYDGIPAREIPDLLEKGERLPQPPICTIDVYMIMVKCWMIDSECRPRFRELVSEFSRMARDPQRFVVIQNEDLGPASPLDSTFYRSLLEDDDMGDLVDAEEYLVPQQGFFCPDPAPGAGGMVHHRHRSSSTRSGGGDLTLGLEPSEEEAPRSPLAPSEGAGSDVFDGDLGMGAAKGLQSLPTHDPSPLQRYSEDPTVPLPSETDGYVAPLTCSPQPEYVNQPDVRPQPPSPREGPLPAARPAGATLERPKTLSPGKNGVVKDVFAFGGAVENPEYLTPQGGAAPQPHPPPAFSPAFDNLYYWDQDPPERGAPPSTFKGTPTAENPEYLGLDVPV
Experimental: as §1, §2

[6] = target: ERBB2 (R896C) (Homo sapiens, UniProt P04626, R896C); assay: as above; assay type: biochemical; settings: final enzyme concentration 200 nM; 100 μM 33P-ATP; 20 min preincubation, 2 hours at 25° C.
ERBB2 (R896C), sequence (P04626 23-1255 R896C): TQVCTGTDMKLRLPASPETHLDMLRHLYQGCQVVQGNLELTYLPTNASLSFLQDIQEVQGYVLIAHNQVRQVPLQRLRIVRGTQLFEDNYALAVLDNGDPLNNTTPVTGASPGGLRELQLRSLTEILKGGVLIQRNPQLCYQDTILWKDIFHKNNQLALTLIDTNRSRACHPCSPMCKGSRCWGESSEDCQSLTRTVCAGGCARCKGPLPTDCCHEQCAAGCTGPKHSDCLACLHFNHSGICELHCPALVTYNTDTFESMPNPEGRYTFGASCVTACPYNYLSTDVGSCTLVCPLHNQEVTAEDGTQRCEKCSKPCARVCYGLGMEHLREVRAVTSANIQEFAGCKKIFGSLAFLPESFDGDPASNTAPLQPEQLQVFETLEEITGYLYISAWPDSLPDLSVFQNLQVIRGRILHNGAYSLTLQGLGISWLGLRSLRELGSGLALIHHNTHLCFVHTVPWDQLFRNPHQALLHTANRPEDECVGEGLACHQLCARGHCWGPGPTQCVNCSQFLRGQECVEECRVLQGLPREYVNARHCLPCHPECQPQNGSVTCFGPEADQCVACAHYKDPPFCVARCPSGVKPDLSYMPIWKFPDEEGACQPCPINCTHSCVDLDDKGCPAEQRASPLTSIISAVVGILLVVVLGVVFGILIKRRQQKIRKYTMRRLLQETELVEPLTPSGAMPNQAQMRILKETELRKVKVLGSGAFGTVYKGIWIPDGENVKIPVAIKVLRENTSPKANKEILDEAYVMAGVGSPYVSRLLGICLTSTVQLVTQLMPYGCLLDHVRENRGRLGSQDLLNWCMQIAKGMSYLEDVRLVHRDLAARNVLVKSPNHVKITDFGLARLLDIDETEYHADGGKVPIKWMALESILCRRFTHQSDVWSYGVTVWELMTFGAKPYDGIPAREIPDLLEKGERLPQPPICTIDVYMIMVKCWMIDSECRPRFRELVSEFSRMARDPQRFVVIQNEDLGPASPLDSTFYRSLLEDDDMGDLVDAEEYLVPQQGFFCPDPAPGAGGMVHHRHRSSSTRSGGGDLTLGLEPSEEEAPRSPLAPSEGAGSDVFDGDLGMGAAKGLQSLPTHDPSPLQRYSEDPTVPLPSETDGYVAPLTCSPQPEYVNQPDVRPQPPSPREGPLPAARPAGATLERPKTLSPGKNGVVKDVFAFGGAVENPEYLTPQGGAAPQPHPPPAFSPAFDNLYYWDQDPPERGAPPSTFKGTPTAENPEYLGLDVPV
Experimental: as §1, §2

[7] = target: EGFR (Homo sapiens, UniProt P00533); assay: as above; assay type: biochemical; settings: final enzyme concentration 3 nM; 100 μM 33P-ATP; 20 min preincubation, 2 hours at 25° C.
EGFR, sequence (P00533 25-1210): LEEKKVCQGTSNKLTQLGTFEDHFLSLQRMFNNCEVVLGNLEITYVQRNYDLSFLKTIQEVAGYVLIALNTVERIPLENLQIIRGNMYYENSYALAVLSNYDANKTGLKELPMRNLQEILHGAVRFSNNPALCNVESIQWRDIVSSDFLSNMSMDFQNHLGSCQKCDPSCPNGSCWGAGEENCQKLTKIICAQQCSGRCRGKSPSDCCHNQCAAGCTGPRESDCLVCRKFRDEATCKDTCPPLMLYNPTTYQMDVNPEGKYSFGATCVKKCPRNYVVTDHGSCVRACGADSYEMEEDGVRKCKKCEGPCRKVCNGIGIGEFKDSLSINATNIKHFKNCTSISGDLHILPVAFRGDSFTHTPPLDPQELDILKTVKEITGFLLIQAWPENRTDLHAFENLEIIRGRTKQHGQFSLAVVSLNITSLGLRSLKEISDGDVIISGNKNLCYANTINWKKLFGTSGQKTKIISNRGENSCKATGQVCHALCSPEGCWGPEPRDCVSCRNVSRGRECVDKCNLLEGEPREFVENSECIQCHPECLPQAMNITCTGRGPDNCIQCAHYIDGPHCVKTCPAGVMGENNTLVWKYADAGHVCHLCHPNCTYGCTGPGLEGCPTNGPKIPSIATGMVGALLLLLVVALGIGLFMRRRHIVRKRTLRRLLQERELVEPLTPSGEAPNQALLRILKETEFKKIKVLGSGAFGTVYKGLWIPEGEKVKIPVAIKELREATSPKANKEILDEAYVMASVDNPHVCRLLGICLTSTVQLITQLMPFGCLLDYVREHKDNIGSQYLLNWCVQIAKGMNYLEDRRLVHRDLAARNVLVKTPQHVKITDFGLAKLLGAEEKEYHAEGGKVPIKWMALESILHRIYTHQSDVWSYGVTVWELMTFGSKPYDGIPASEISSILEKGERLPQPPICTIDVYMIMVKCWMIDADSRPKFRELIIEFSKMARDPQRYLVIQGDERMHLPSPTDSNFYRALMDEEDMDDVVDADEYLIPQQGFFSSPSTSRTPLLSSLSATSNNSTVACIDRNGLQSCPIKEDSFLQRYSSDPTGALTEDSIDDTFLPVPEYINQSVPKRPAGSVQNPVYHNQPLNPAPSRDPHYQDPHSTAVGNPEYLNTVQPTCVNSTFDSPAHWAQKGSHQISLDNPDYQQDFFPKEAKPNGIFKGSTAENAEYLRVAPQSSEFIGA
Experimental: as §1, §2

IC50 [1] | IC50 [3] | IC50 [4] | IC50 [5] | IC50 [6] | IC50 [7] | Structure (SMILES) | GI50 [2]
233 nM |  |  |  |  |  | CC#CC(=O)Nc1cc2c(Nc3ccc(Oc4ccn5ncnc5c4)c(C)c3)ncnc2cc1OCCN(C)C [Compound 150, N-[7-[2-(dimethylamino)ethoxy]-4-[(3-methyl-4-[[1,2,4]triazolo[1,5-a]pyridin-7-yloxy]phenyl)amino]quinazolin-6-yl]but-2-ynamide] | 
 | 1.56 nM | 0.97 nM | 1.04 nM | 2.29 nM | 58 nM | CC#CC(=O)Nc1ccc2ncnc(Nc3ccc(Oc4ccn5ncnc5c4)c(C)c3)c2c1 [Compound 1, N-[4-[(3-methyl-4-[[1,2,4]triazolo[1,5-a]pyridin-7-yloxy]phenyl)amino]quinazolin-6-yl]but-2-ynamide] | > 1000 nM
 | 13.7 nM | 4.43 nM | 5 nM | 2.95 nM | 954 nM | Cc1cc(Nc2ncnc3ccc(NC4=NC(C)(C)CO4)cc23)ccc1Oc1ccn2ncnc2c1 [Tucatinib, tucatinib, reference compound] | 
